Data set [1] relates to 3T3-L1 precursor adipocyte. The data set is described as follows: Example II-3: index gene expression in adipocytes after maturation, with or without adrenaline stimulation, real-time RT-PCR. Format: cell-based, mouse. As to conditions: matured cells, 1 μM L-adrenaline for 2 hours; control 3.1 times. Here is the method: Since it was evaluated in Example II-2 whether the derivative-containing composition induces the differentiation from the white adipocytes into the brown-like adipocytes using the cells immediately after the induction of the differentiation, it was evaluated in Example II-3 whether the relevant induced cell maintains the trait of the brown-like adipocytes even after maturation using matured adipocytes. The evaluation was made using as indexes the expression level of each gene of FGF-21, PGC-1α, and cell death-inducing DFFA-like effector a (Cidea) which is a brown-like adipocyte marker gene as well as the expression level of […] gene when adding adrenaline to the adipocyte after maturation based on the understanding that the brown-like adipocyte responds to the adrenaline stimulation thereby increasing the expression level of UCP1 gene, whereby the induction of the differentiation of the white adipocytes into the brown-like adipocytes was confirmed. […]
Based on the Ct values (Threshold Cycle: number of cycles for achieving a certain amplification level (threshold)) of […], FGF-21, PGC-1α, PGC-1β, Cidea, and UCP1 in each cell obtained, the relative value of each gene expression level of FGF-21, PGC-1β, PGC-1α, Cidea, and UCP1 was calculated.

The nature of data set [2]: Physicochemical characteristics: solubility. The source says:
The physicochemical characteristics of UHA4022 are as follows.

Experimental findings from patent US20160053227A1, “AGENT FOR INDUCING DIFFERENTIATION OF WHITE ADIPOCYTES INTO BROWN-LIKE ADIPOCYTES” (UHA MIKAKUTO CO., LTD., priority 2013, published 2016) are described below.

Take `CN(CCOc1ccc(CC2SC(=O)NC2=O)cc1)c1ccccn1` (stereo not shown) [rosiglitazone]: in data set [1], the “UCP1 gene expression-increasing effect of adrenaline, presence vs absence of adrenaline” value was determined as 6.2 times.
For the compound `Oc1ccc(/C=C\c2c3c(cc4c2C(c2ccc(O)cc2)Cc2cc(O)cc(O)c2-4)-c2c(O)cc(O)cc2CC3c2ccc(O)cc2)cc1` (stereo not shown) [UHA4022], the Solubility in chloroform entry in data set [2] (Chloroform) is “Hardly soluble”. The “Solubility in DMSO” value in data set [2] (DMSO) is reported as “Soluble”. Moreover, the Solubility in ethanol entry in data set [2] (Ethanol) was “Soluble”. In addition, the “Solubility in ethyl acetate” value in data set [2] (Ethyl acetate) is “Hardly soluble”. Further, the Solubility in methanol entry in data set [2] (Methanol) is given as “Soluble”. Further, the Solubility in water result in data set [2] (Water) was “Hardly soluble”.
